Reference: patent publication US20080015181A1, “Pharmaceutical Compositions Comprising Droxidopa” (Chelsea Therapeutics, Inc., priority 2006, published 2008)

Experiments:
[1] = test system: plasma norepinephrine; assay: Plasma norepinephrine concentration after dosing of droxidopa or droxidopa combinations in rats; type: in vivo, male Sprague Dawley rats; conditions: 2 hours post-dosing, rat
Method: The pharmacokinetic properties of droxidopa combinations according to the invention were evaluated in male Sprague Dawley rats. Four test groups with four rats in each group were established. Group 1 was administered droxidopa alone as a baseline group. Group 2 was administered droxidopa in combination with the COMT inhibitor entacapone. Group 3 was administered droxidopa in combination with the cholinesterase inhibitor pyridostigmine. Group 4 was administered droxidopa in combination with the MAOI nialamide. For each group, the droxidopa or droxidopa combination was formulated with a vehicle formed of a water solution containing 1% carboxymethylcellulose with 0.2% TWEEN® 80 emulsifier. […] The amounts of entacapone, pyridostigmine, and nialamide used in formulations 2-7 were provided as “low” doses and “high” doses based upon disclosure in the literature of generally accepted dosage ranges for their respective known indications.
Rats in each group were given a single gavage dose of droxidopa alone or the droxidopa combination, the time of dosing being recorded as time=0. Dosing was based upon the weight of the subject and was adjusted to provide all test subjects a droxidopa dose of approximately 100 mg per kg of body weight. Blood samples (approximately 100 μL) were collected at approximately 5, 15, and 30 minutes, and at approximately 1, 2, 4, 8, and 24 hours after dosing. […]

[2] = test system: MAO-A than MAO-B; conditions: known; cited from earlier work
[3] = compound co-administered with droxidopa, relative to droxidopa alone; rat
Method: The pharmacokinetic properties of droxidopa combinations according to the invention were evaluated in male Sprague Dawley rats. Four test groups with four rats in each group were established. Group 1 was administered droxidopa alone as a baseline group. Group 2 was administered droxidopa in combination with the COMT inhibitor entacapone. Group 3 was administered droxidopa in combination with the cholinesterase inhibitor pyridostigmine. Group 4 was administered droxidopa in combination with the MAOI nialamide. For each group, the droxidopa or droxidopa combination was formulated with a vehicle formed of a water solution containing 1% carboxymethylcellulose with 0.2% TWEEN® 80 emulsifier.
Rats in each group were given a single gavage dose of droxidopa alone or the droxidopa combination, the time of dosing being recorded as time=0. Dosing was based upon the weight of the subject and was adjusted to provide all test subjects a droxidopa dose of approximately 100 mg per kg of body weight. […]
As a standard, plasma droxidopa concentration in rats administered the drug vehicle with no droxidopa or droxidopa combinations present was also evaluated, and no droxidopa was detected over a 24 hour period in plasma from the rats administered the vehicle alone. Likewise, no droxidopa was detected in any subjects prior to dosing of the droxidopa or droxidopa combinations. […]

Compound: NC(C(=O)O)C(O)c1ccc(O)c(O)c1 (stereo not drawn) [droxidopa, threo-3-(3,4-dihydroxyphenyl)serine]
- increase in plasma norepinephrine concentration ([1]; droxidopa alone versus vehicle alone): ~5 fold

Compound: CCN(CC)C(=O)/C(C#N)=C/c1cc(O)c(O)c([N+](=O)[O-])c1 [entacapone, [(E)-2-cyano-N,N-diethyl-3-(3,4-dihydroxy-5-nitrophenyl)propenamide]]
- plasma norepinephrine concentration in relation to treatment with droxidopa alone (in words) ([1]; compound combined with droxidopa): increased plasma norepinephrine concentration beyond the effect of droxidopa alone

Compound: O=C(NCCN1CCOCC1)c1ccc(Cl)cc1 [moclobemide]
- selectivity for MAO-A than MAO-B [2]: approximately three times more selective for MAO-A than MAO-B

Compound: CN(C)C(=O)Oc1ccc[n+](C)c1 [pyridostigmine, 3-dimethylcarbamoyloxy-1-methylpyridinium]
- effect on droxidopa half-life (in words) [3]: increase in droxidopa half-life
